Tests used:
[1] = molecular target: Serine/threonine-protein kinase N1 (Homo sapiens) (UniProt Q16512); test: Inhibition of human PRK1 at 18.6 nM by HotSpot assay relative to control
[2] = molecular target: Fibroblast growth factor receptor 4 (Homo sapiens) (UniProt P22455); test: Inhibition of human FGFR4 at 18.6 nM by HotSpot assay relative to control
[3] = molecular target: T1, Serine/threonine-protein kinase 17A (Homo sapiens) (UniProt Q9UEE5); test: Inhibition of human DRAK1 at 18.6 nM by HotSpot assay relative to control
T1 sequence (whole entry): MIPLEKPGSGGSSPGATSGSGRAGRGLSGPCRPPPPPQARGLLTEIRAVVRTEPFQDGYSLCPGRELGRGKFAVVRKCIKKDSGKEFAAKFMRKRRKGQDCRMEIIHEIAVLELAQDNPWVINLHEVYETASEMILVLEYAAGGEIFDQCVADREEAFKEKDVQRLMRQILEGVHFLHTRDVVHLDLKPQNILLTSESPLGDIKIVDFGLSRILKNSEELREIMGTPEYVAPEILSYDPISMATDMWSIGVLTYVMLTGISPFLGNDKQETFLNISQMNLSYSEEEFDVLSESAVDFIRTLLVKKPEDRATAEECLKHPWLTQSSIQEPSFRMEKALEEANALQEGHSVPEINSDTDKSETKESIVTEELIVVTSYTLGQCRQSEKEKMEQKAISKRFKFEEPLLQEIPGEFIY

[4] = molecular target: ALK tyrosine kinase receptor (Homo sapiens) (UniProt Q9UM73); test: Inhibition of human ALK at 500 nM by HotSpot assay relative to control
[5] = molecular target: Protein kinase C eta type (Homo sapiens) (UniProt P24723); test: Inhibition of human PKCeta at 1.82 nM by HotSpot assay relative to control
[6] = molecular target: Tyrosine-protein kinase Lyn (Homo sapiens) (UniProt P07948); test: Inhibition of human LYN at 1.82 nM by HotSpot assay relative to control
[7] = molecular target: T2, Serine/threonine-protein kinase ULK2 (Homo sapiens) (UniProt Q8IYT8); test: Inhibition of human ULK2 at 1.82 nM by HotSpot assay relative to control
T2 sequence (whole entry): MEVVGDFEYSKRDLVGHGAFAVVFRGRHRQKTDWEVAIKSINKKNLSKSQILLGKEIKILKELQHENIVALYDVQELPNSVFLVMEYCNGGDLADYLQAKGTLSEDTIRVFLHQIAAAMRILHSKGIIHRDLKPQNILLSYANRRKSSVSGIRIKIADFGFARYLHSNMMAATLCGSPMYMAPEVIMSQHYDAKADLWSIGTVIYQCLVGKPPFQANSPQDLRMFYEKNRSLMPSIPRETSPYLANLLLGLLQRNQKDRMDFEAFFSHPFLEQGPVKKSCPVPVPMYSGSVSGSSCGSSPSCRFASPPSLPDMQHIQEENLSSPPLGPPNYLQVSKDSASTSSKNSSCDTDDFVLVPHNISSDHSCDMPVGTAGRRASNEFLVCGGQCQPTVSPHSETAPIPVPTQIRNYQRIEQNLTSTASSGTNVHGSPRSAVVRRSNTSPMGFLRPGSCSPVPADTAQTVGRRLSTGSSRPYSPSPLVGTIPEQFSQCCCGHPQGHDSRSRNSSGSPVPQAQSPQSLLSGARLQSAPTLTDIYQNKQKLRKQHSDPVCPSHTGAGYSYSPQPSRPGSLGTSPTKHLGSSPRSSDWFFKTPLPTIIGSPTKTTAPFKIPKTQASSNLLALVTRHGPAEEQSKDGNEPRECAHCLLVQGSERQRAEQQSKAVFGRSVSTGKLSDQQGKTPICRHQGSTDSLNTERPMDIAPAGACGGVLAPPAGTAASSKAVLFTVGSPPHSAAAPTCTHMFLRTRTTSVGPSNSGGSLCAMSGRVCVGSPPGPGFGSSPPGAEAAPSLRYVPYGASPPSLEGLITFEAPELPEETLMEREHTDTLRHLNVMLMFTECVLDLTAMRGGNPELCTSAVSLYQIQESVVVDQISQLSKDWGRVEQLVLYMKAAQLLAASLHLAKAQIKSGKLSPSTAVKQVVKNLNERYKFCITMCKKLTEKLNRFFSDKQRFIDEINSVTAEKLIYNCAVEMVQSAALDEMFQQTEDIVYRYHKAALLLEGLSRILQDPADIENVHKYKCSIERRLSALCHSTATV

[8] = molecular target: Mitogen-activated protein kinase 8 (Homo sapiens) (UniProt P45983); test: Inhibition of human JNK1 at 1.82 nM by HotSpot assay relative to control
[9] = molecular target: T3, Serine/threonine-protein kinase TAO1 (Homo sapiens) (UniProt Q7L7X3); test: Inhibition of human TAOK1 at 1.82 nM by HotSpot assay relative to control
T3 sequence (whole entry): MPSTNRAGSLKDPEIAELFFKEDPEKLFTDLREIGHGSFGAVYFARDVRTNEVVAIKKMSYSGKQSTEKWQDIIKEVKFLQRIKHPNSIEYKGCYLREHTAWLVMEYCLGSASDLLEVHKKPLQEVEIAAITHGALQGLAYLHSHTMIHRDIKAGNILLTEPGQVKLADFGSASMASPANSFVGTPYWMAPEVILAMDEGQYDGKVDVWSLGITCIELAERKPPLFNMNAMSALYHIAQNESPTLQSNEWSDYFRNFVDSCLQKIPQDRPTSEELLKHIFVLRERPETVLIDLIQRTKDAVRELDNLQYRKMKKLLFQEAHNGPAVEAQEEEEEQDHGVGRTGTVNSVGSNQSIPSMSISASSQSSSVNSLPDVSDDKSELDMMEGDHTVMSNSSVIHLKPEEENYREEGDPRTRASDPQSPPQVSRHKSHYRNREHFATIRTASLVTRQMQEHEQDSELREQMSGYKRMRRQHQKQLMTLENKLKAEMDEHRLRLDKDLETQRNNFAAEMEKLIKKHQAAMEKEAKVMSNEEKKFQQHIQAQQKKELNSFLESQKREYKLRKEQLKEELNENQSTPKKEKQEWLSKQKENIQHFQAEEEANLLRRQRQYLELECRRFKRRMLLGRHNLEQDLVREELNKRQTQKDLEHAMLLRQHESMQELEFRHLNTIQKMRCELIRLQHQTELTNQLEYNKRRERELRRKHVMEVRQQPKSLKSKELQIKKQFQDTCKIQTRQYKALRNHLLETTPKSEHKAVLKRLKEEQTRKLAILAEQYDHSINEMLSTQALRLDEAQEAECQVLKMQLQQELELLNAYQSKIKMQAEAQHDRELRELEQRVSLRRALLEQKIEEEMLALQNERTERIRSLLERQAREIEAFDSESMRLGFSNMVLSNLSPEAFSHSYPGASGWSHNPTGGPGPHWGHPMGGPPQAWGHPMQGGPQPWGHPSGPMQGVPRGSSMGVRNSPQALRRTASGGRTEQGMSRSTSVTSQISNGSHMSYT

[10] = molecular target: RAC-gamma serine/threonine-protein kinase (Homo sapiens) (UniProt Q9Y243); test: Inhibition of human AKT3 at 1.82 nM by HotSpot assay relative to control
Chain of RAC-gamma serine/threonine-protein kinase (Homo sapiens) (Q9Y243 whole entry): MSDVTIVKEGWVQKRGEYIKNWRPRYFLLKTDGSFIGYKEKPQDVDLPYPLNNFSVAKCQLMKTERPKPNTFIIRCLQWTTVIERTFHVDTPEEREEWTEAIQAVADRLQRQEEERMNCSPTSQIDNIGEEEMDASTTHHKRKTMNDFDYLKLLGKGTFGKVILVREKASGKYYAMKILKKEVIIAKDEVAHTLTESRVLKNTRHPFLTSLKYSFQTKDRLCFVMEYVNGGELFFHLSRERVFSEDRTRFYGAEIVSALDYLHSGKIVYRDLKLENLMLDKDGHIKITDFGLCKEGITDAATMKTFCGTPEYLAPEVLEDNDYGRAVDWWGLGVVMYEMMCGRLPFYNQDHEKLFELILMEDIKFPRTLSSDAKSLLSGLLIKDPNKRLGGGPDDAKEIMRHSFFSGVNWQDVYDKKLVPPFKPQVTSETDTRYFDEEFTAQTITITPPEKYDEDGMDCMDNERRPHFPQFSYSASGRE

Chain of Tyrosine-protein kinase Lyn (Homo sapiens) (P07948 2-512 limits assumed): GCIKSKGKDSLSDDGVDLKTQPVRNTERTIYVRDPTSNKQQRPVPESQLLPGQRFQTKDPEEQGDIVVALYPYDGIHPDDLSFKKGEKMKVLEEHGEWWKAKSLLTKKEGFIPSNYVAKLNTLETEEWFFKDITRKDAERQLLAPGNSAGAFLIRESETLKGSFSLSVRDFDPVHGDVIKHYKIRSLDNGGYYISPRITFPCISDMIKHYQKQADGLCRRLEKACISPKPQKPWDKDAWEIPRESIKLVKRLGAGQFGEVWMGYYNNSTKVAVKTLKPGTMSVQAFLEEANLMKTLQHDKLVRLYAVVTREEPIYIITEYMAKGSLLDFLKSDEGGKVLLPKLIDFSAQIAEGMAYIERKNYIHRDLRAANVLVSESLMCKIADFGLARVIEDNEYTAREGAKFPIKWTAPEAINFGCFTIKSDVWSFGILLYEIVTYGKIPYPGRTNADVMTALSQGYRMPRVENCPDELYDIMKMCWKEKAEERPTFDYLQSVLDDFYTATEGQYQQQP
Chain of ALK tyrosine kinase receptor (Homo sapiens) (Q9UM73 19-1620 limits assumed): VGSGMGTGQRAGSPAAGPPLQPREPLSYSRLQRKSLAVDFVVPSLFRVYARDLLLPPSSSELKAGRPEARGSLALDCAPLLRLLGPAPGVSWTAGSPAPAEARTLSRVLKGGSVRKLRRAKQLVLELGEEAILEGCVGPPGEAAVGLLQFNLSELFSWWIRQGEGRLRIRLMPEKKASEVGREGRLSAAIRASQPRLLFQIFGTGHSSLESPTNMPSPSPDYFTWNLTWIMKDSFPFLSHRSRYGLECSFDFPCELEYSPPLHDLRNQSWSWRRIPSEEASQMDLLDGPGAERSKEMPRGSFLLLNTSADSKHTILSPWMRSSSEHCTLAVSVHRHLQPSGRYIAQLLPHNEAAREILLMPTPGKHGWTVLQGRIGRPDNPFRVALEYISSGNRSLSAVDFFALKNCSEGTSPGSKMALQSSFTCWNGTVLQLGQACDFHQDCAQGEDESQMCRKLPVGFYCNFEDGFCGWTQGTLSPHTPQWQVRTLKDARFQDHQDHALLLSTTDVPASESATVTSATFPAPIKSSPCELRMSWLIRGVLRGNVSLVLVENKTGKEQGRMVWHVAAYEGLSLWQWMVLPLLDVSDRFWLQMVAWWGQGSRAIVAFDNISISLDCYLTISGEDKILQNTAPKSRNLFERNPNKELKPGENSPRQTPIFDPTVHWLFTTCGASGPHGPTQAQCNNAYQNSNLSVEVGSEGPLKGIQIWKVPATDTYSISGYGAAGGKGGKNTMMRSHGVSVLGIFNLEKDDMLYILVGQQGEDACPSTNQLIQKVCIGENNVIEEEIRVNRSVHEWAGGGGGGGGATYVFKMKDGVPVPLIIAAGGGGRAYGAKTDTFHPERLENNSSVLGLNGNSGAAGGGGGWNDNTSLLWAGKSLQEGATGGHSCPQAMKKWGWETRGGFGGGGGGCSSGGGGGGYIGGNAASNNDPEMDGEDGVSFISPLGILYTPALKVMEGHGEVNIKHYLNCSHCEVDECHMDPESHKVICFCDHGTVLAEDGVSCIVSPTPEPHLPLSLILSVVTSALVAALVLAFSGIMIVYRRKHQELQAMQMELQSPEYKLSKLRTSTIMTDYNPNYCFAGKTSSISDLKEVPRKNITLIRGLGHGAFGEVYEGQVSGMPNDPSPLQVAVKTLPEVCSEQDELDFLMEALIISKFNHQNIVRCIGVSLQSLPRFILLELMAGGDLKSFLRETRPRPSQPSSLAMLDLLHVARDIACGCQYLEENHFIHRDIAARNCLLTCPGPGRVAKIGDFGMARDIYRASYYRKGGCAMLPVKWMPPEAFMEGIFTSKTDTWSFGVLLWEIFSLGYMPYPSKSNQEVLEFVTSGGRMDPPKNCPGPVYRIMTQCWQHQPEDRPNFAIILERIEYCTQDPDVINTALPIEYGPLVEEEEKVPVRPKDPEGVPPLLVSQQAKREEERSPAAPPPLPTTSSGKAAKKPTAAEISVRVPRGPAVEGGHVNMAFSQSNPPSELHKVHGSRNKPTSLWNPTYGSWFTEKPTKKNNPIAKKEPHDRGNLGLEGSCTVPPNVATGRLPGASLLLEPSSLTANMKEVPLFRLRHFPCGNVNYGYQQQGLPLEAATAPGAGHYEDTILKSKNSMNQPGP
Chain of Mitogen-activated protein kinase 8 (Homo sapiens) (P45983 whole entry): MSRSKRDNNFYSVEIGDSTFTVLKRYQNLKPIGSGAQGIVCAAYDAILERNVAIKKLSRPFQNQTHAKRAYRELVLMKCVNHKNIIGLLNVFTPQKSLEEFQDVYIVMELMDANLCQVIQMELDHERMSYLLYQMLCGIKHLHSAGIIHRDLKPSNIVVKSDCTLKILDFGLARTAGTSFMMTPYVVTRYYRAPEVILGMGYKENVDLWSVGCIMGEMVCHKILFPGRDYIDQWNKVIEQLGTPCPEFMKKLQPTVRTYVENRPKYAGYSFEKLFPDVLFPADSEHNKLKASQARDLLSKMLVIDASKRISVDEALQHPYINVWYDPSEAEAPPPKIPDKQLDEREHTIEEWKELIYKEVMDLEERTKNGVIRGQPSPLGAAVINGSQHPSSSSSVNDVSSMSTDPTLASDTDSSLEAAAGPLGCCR
Chain of Fibroblast growth factor receptor 4 (Homo sapiens) (P22455 22-802 limits assumed): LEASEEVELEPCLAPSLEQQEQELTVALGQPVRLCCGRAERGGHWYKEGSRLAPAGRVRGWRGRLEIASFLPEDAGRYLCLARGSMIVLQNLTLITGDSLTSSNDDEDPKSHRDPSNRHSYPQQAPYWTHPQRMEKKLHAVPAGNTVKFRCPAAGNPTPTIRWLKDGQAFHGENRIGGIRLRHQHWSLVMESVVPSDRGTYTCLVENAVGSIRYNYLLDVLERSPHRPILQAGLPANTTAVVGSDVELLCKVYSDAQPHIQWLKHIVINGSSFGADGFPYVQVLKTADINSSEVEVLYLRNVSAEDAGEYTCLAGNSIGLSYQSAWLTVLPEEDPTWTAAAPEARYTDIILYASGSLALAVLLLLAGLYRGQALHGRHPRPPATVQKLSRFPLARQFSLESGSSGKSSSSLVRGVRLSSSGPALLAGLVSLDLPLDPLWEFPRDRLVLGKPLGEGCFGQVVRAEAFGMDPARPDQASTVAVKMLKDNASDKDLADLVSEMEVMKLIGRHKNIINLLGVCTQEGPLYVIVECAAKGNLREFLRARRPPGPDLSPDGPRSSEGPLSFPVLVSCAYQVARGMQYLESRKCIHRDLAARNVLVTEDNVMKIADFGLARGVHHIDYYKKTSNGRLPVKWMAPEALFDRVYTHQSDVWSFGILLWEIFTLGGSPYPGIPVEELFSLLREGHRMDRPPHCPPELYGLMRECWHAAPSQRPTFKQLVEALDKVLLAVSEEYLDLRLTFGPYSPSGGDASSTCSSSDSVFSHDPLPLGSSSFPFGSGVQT
Chain of Protein kinase C eta type (Homo sapiens) (P24723 whole entry): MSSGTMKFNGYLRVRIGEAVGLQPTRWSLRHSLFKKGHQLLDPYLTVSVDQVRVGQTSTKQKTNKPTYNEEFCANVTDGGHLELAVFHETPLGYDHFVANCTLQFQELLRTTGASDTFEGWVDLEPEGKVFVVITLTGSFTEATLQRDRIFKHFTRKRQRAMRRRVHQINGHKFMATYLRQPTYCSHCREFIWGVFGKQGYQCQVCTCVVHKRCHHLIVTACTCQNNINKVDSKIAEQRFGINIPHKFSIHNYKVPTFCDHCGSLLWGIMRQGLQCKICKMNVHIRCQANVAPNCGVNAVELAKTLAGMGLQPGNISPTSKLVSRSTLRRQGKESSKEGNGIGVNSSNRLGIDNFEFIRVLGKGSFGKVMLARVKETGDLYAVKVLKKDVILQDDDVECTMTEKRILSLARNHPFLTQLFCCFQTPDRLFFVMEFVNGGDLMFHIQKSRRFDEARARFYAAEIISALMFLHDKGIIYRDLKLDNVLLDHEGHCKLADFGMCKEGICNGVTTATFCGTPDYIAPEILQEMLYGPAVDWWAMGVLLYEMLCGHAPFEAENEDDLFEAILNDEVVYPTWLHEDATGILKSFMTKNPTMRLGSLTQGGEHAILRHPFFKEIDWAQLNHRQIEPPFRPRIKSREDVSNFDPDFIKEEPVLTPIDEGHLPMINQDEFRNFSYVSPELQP

Compound `C[C@]1(O)C[C@@H](c2nc(-c3ccc4ccc(-c5ccccc5)nc4c3)c3c(N)nccn32)C1` has an inhibition [1] of -7.69%, an inhibition [2] of 9% and an inhibition [3] of 0.05%.
Work on `Nc1n[nH]c2nnc(-c3c(-c4ccccc4)nn4ccccc34)cc12` yielded an inhibition [4] of -7.89%.
Compound `C[C@@]1(C(=O)Nc2ccc(F)nc2)CCCN1c1nc(Nc2cc(C3CC3)n[nH]2)c2cccn2n1` has an inhibition [5] of -0.87%, an inhibition [6] of 3.66% and an inhibition [7] of -7.91%. For the same compound, the inhibition [8] was -1.19%, the inhibition [9] was 4.21% and the inhibition [10] was 2.34%.

— ChEMBL document CHEMBL5653615 (J Biol Chem, 2013)
